The NIST ThermoML archive (doi:10.1016/j.jct.2015.08.014)

Conditions: Liquid; for electrical conductivity: Alternating current cell with electrodes; for viscosity: Capillary tube (Ostwald / Ubbelohde) method; for mass density: Vibrating tube method

CCCC[N+]1(C)CCCC1.N#CN=C=[N-] [1-butyl-1-methylpyrrolidinium dicyanamide]
electrical conductivity [S/m], 100 kPa
Conditions	273.15 K	283.15 K	293.15 K	298.15 K	303.15 K	313.15 K	323.15 K
Frequency=0.0005 MHz	0.522	0.786	1.122	1.315	1.525	1.99	2.525
Frequency=0.001 MHz	0.522	0.786	1.122	1.316	1.526	2	2.526
Frequency=0.0015 MHz	0.522	0.786	1.123	1.316	1.526	2	2.527
Frequency=0.002 MHz	0.522	0.786	1.123	1.316	1.527	2	2.528
Frequency=0.0025 MHz	0.522	0.786	1.123	1.317	1.527	2	2.528
Frequency=0.003 MHz	0.522	0.786	1.123	1.317	1.527	2	2.528
Frequency=0.00347222 MHz	0.523	0.786	1.123	1.317	1.527	2	2.528
Frequency=0.004 MHz	0.523	0.786	1.123	1.317	1.527	2	2.529
Frequency=0.00446429 MHz	0.523	0.786	1.123	1.317	1.527	2	2.529
Frequency=0.005 MHz	0.523	0.786	1.123	1.317	1.527	2	2.529
Frequency=0.005454 MHz	0.523	0.786	1.123	1.317	1.527	2	2.529
Frequency=0.006 MHz	0.523	0.786	1.123	1.317	1.527	2	2.529
Frequency=0.00652174 MHz	0.523	0.786	1.123	1.317	1.527	2	2.529
Frequency=0.00694444 MHz	0.523	0.786	1.123	1.317	1.527	2	2.529
Frequency=0.0075 MHz	0.523	0.786	1.123	1.318	1.527	2	2.529
Frequency=0.008 MHz	0.523	0.786	1.123	1.318	1.527	2	2.529
Frequency=0.00857143 MHz	0.523	0.786	1.123	1.318	1.527	2	2.529
Frequency=0.00892857 MHz	0.523	0.786	1.124	1.318	1.527	2	2.529
Frequency=0.00961538 MHz	0.523	0.786	1.124	1.318	1.527	2	2.529
Frequency=0.01 MHz	0.523	0.786	1.124	1.318	1.527	2	2.529

101.33 kPa
Conditions	electrical conductivity [S/m]	mass density [kg/m3]	viscosity [mPa·s]
273.15 K	0.523	1027.69	93.95
278.15 K	0.645	1024.82	74.27
283.15 K	0.786	1021.96	59.6
288.15 K	0.943	1019.11	48.6
293.15 K	1.123	1016.28	40.25
298.15 K	1.317	1013.45	33.71
303.15 K	1.527	1010.64	28.53
308.15 K	1.75	1007.84	24.53
313.15 K	2	1005.06	21.07
318.15 K	2.25	1002.28	18.37
323.15 K	2.529	999.525	16.15
328.15 K	–	996.781	–
333.15 K	–	994.049	–
